Key:
Assay type in all cases: cell-based, human
[1] = test system: NZM40 (NRAS Q16H) melanoma cells; assay: FACS uptake of BODIPY FL conjugates, 200 nM, 5 min (Example 2)
Method: FIG. 2. Conjugate compounds coupled to BODIPY FL were tested for uptake using 200 nM each conjugate and 5 minute incubation with melanoma cell line NZM11 (BRAF V600E mutant metastatic melanoma), melanoma cell line NZM40 (NRAS Q16H mutant metastatic melanoma) and melanoma cell line NZM9 (BRAF and NRAS wildtype metastatic melanoma). Mean fluorescent intensities (MFI). 2,000 cells (NZM11), 1,000 cells (NZM40) and 500-1,000 cells (NZM9). Cells were sorted by FACS. Bars represent mean±SD. Results were from a single experiment done in triplicate.
NZM40 is an adherent cell line which was originally derived from a metastatic melanoma from a patient, in 2004. This human metastatic melanoma is identified with code CBA-1381 from Cell bank Australia. […] Ras is a superfamily of proteins implicated in cell growth, survival and differentiation. NRAS (neuroblastoma rat sarcoma) was the first oncogene recognized in melanoma and mutations in NRAS account for 20% of all melanomas. NRAS mutations primarily occur at position 61 and involve amino acid change from glutamine (Q) to arginine (R), lysine (K), leucine (L) or histidine (H). These mutations block NRAS into a GTP-bound state damaging its GTPase activity (FIG. 1). Patients are usually older (>55 years) with previous UV exposure. See Garcia-Alverez et al., 2021.
For screening, NZM11, NZM40 and NZM9 cells were suspended at […] dispensed into 96 well plates and left to settle for 48 hours. Then, 10 μL of 10 mM stock solutions in DMSO for the conjugates were diluted with HBSS to afford 400 nM solution. Next, 400 nM compounds and DMSO solutions were diluted 1:1 with MEMα media to afford 200 nM solutions. After 48 hours the media was removed from the 96 well plates and 200 μL of 200 nM conjugates solutions dispensed to each well (in triplicate) and incubated for 5 minutes at 37 °C. After 5 minutes, the media was removed and cells washed with PBS. Then, 100 μL of TrypLE trypsin (ThermoFisher Scientific) were added to each well and incubated for 5 minutes at 37 °C after which, 100 μL of MEMα media were added and samples were sorted through FACS biosort. The FACS results output were represented as the mean of the fluorescence intensities (in arbitrary units) measured for cells sorted in every sample.

neutrophils = assay: FACS uptake of BODIPY FL conjugates in PBMCs (Example 3); conditions: 135 nM
Method: (§1) FIG. 3A. Conjugate compounds coupled to BODIPY FL were tested for uptake using 135 nM each conjugate and 4.5 minute incubation with human lymphocytes, monocytes and neutrophils (from a healthy donor). Mean fluorescent intensities (MFI). 1,000 cells (lymphocytes), 500 cells (monocytes) and 250 cells (neutrophils) sorted by FACS. Bars represent mean±SD. Results represent a single experiment done in duplicate.
(§2) In addition to this, 25 mL of full blood was collected from a healthy donor in lithium-heparin vacutainer. Peripheral blood mononuclear cells (PBMCs) were collected after ficoll separation. PBMCs then were centrifuge at 400 g for 5 minutes. Supernatant was removed from the cells and resuspended with 20 mL of HBSS with a final concentration of 417,500 cells/mL. Then, 479 μL of cells suspension were poured into Eppendorf tube and 1000 μL of 200 nM drug solution in HBSS were added to afford 135 nM final drug concentration, incubated at 37 °C for 5 minutes. After incubation time, PBMCs were centrifuged at 400 g for 5 minutes. Supernatant was removed from the cells and pellet resuspended with 200 μL of HBSS. Suspension was transferred to 96 well-plate and run on FACS machine, approximately 1,000-250 cells analysed. The FACS results output represented the mean of the fluorescence intensities (in arbitrary units) measured for cells sorted in every sample.

monocytes = assay: as above; conditions: 135 nM
Method: as §1, §2

Jurkat cells = assay: FACS uptake of BODIPY FL conjugates in Jurkat cells (Example 3); conditions: 200 nM
Method: FIG. 3B: Conjugate compounds coupled to BODIPY FL were tested for uptake using 200 nM each conjugate and 5 minute incubation with immortalized T lymphocyte cell line, Jurkat cells. Mean fluorescent intensities (MFI). 1,000 cells sorted by FACS. Bars represent mean±SD. Results represent a single experiment done in duplicate.
Materials and methods: Jurkat cells have been previously shown to be defective in the expression of two lipid phosphatases, PTEN (phosphatase and tensin homologue) and SHIP (SH2-domain-containing inositol polyphosphate 5′ phosphatase). The biological implications of SHIP deficiency in T cells remain under evaluation, but the loss of PTEN leads to activation of the phosphatidylinositol 3-kinase (PI3K)-signalling pathway. See Abraham and Weiss, 2004. This activation of PI3K protein is also on NZM40 melanoma cell line, and represents a key mutation for its sustained proliferation. See Silva et al., 2017. For these experiments, Jurkat cells were diluted on RPMI media (supplemented with 10% FBS+1% penicillin-streptomycin) to afford 400 cells/μL. 2 μL of 100 μM stock solutions in DMSO from 138 and pantothenic acid/pantothenic acid derivatives coupled to BODIPY were diluted with 998 μL of RPMI media (supplemented with 10% FBS+1% penicillin-streptomycin) to afford 200 nM solution. 100,000 cells were dispensed to Eppendorf tubes, centrifuged for 1.5 min at 5000 rcf and the supernatant was removed. The cells then were incubated with 500 μL of solutions at 200 nM for 4.5 min and 37 °C. After the incubation time, cells were centrifuged for 1.5 minutes at 5000 rcf. Supernatant was removed and cell pellet re-suspended in 200 μL fresh RPMI media, transferred to 96 well-plate and run on FACS machine, approximately 1,000 cells analysed.

[2] = test system: HT29 (colorectal cancer cell line); assay: FACS uptake of BODIPY FL conjugates (Example 4); conditions: 200 nM, 5 min
Method: FIG. 4A: Conjugate compounds coupled to BODIPY FL were tested for uptake using 200 nM each conjugate and 5 minute incubation with colorectal cancer cell line HT29. Mean fluorescent intensities (MFI). 1,000 cells were sorted by FACS.
Materials and methods: The HT-29 line was originally isolated from a primary tumour in 1964 from a person. This cell line is positive for expression of N-ras and overexpression of p53 antigen. The human colon adenocarcinoma cell line HT29, is not only used to study the biology of human colon cancers, but it is receiving special interest in studies focused on food digestion and bioavailability due to the ability to express characteristics of mature intestinal cells. The application of this cell line to transport studies of drugs and food compounds is illustrated, especially when the effect of the mucus layer is considered or used as co-culture in combination with Caco-2 cells. These cells have shown a high rate of glucose consumption and therefore, they require high glucose concentration in the medium. Verhoeck et al., 2015.
For these experiments, HT-29 or MEF cells were diluted on αMEM media (supplemented with 10% FBS+1% penicillin-streptomycin) to give a 250 cells/μL suspension of which 200 μL were aliquoted into each well of a 96 well plate followed by incubation for 24 hours. Next, 2 μL of 100 μM stock solutions in DMSO from the conjugates coupled to BODIPY were diluted with 998 μL of αMEM media to give a 200 nM solution. After 24 hour incubation, media was removed and 200 μL of 138 and pantothenic acid/pantothenic acid derivatives coupled to BODIPY 200 nM solutions were added and cells were incubated for 5 minutes at 37 °C. After 5 minutes, the compounds and DMSO solutions were removed and cells were washed with PBS. Then, 100 μL of TrypLE trypsin were added to each well and incubated for 5 minutes at 37 °C. After this time, 100 μL of DMEM media were added to the wells and samples were sorted through FACS biosort. The studies were completed in duplicated wells.

CC1=CC(C)=[N+]2C1=Cc1ccc(CCCn3cc(CCNC(=O)/C=C\NC(=O)[C@H](O)C(C)(C)CO)nn3)n1[B-]2(F)F [Compound 128, (Z)—N-((((3-[4,4-Difluoro-5,7-dimethyl-4-bora-3a,4a-diaza-s-indacene-3-yl]propyl)-1H-1,2,3-triazol-4-yl)ethylamino)-3-oxoprop-1-enyl)-2,4-dihydroxy-3,3-dimethylbutanamide]
uptake (fluorescence intensities) [1]: showed selectivity | targeting / fluorescence intensities (neutrophils): significant intensities | targeting / fluorescence intensities (monocytes): significant intensities | uptake / targeting (Jurkat cells): showed targeting

CC1=CC(C)=[N+]2C1=Cc1ccc(CCCn3cc(CCNC(=O)/C=C/NC(=O)[C@H]4OC(C)(C)OCC4(C)C)nn3)n1[B-]2(F)F [Compound 127, (E)-N-((((3-[4,4-Difluoro-5,7-dimethyl-4-bora-3a,4a-diaza-s-indacene-3-yl]propyl)-1H-1,2,3-triazol-4-yl)ethylamino)-3-oxoprop-1-enyl)-2,2,5,5-tetramethyl-1,3-dioxane-4-carboxamide]
uptake (fluorescence intensities) [1]: showed selectivity | targeting / fluorescence intensities (neutrophils): showed targeting | targeting / fluorescence intensities (monocytes): showed targeting | uptake (fluorescent intensities) [2]: moderately higher fluorescent intensities | uptake / targeting (Jurkat cells): showed targeting

— patent publication US20260364186A1, “Chemical Conjugates, Compositions, and Methods of Preparation and Use Thereof” (Transfection Holdings Limited, priority 2022, published 2026)
